Reference: PubChem BioAssay AID2060893 (Molecular Pharmacology Branch, DTP, NCI, 2025)
Blank lines part the entries; values can stand above or below the molecule they belong to.

Tested on: K86415-001-R-J1-PDC complex spheroids, viability
Experiment: Anticancer human tumor K86415-001-R-J1-PDC patient-derived lung adenocarcinoma cell line growth inhibition [RAS]
Settings: for IC50: curve of first compound; for viability, T/C: stronger effect = lower value
In short: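 Multi-cell-type spheroids: tumor cells plus HUVEC endothelial cells and mesenchymal stem cells. RAS-pathway inhibitors were combined with targeted agents, each dosed in half-log steps down from clinical Cmax, or from 10 microM when Cmax was unknown.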

[1] = second compound 0.00316 µM, first compound 0.000949 µM
[2] = second compound 0.00316 µM, first compound 0.003 µM
[3] = second compound 0.00316 µM, first compound 0.00949 µM
[4] = second compound 0.00316 µM, first compound 0.03 µM
[5] = second compound 0.00316 µM, first compound 0.0949 µM
[6] = second compound 0.00316 µM, first compound 0.3 µM
[7] = second compound 0.01 µM, first compound 0.000949 µM
[8] = second compound 0.01 µM, first compound 0.003 µM
[9] = second compound 0.01 µM, first compound 0.00949 µM
[10] = second compound 0.01 µM, first compound 0.03 µM
[11] = second compound 0.01 µM, first compound 0.0949 µM
[12] = second compound 0.01 µM, first compound 0.3 µM
[13] = second compound 0.0316 µM, first compound 0.000949 µM
[14] = second compound 0.0316 µM, first compound 0.003 µM
[15] = second compound 0.0316 µM, first compound 0.00949 µM
[16] = second compound 0.0316 µM, first compound 0.03 µM
[17] = second compound 0.0316 µM, first compound 0.0949 µM
[18] = second compound 0.0316 µM, first compound 0.3 µM
[19] = second compound 0.1 µM, first compound 0.000949 µM
[20] = second compound 0.1 µM, first compound 0.003 µM
[21] = second compound 0.1 µM, first compound 0.00949 µM
[22] = second compound 0.1 µM, first compound 0.03 µM
[23] = second compound 0.1 µM, first compound 0.0949 µM
[24] = second compound 0.1 µM, first compound 0.3 µM
[25] = second compound 0.316 µM, first compound 0.000949 µM
[26] = second compound 0.316 µM, first compound 0.003 µM
[27] = second compound 0.316 µM, first compound 0.00949 µM
[28] = second compound 0.316 µM, first compound 0.03 µM
[29] = second compound 0.316 µM, first compound 0.0949 µM
[30] = second compound 0.316 µM, first compound 0.3 µM
[31] = second compound 1 µM, first compound 0.000949 µM
[32] = second compound 1 µM, first compound 0.003 µM
[33] = second compound 1 µM, first compound 0.00949 µM
[34] = second compound 1 µM, first compound 0.03 µM
[35] = second compound 1 µM, first compound 0.0949 µM
[36] = second compound 1 µM, first compound 0.3 µM
[37] = second compound 0.000949 µM, first compound 0.00316 µM
[38] = second compound 0.000949 µM, first compound 0.01 µM
[39] = second compound 0.000949 µM, first compound 0.0316 µM
[40] = second compound 0.000949 µM, first compound 0.1 µM
[41] = second compound 0.000949 µM, first compound 0.316 µM
[42] = second compound 0.000949 µM, first compound 1 µM
[43] = second compound 0.003 µM, first compound 0.00316 µM
[44] = second compound 0.003 µM, first compound 0.01 µM
[45] = second compound 0.003 µM, first compound 0.0316 µM
[46] = second compound 0.003 µM, first compound 0.1 µM
[47] = second compound 0.003 µM, first compound 0.316 µM
[48] = second compound 0.003 µM, first compound 1 µM
[49] = second compound 0.00949 µM, first compound 0.00316 µM
[50] = second compound 0.00949 µM, first compound 0.01 µM
[51] = second compound 0.00949 µM, first compound 0.0316 µM
[52] = second compound 0.00949 µM, first compound 0.1 µM
[53] = second compound 0.00949 µM, first compound 0.316 µM
[54] = second compound 0.00949 µM, first compound 1 µM
[55] = second compound 0.03 µM, first compound 0.00316 µM
[56] = second compound 0.03 µM, first compound 0.01 µM
[57] = second compound 0.03 µM, first compound 0.0316 µM
[58] = second compound 0.03 µM, first compound 0.1 µM
[59] = second compound 0.03 µM, first compound 0.316 µM
[60] = second compound 0.03 µM, first compound 1 µM
[61] = second compound 0.0949 µM, first compound 0.00316 µM
[62] = second compound 0.0949 µM, first compound 0.01 µM
[63] = second compound 0.0949 µM, first compound 0.0316 µM
[64] = second compound 0.0949 µM, first compound 0.1 µM
[65] = second compound 0.0949 µM, first compound 0.316 µM
[66] = second compound 0.0949 µM, first compound 1 µM
[67] = second compound 0.3 µM, first compound 0.00316 µM
[68] = second compound 0.3 µM, first compound 0.01 µM
[69] = second compound 0.3 µM, first compound 0.0316 µM
[70] = second compound 0.3 µM, first compound 0.1 µM
[71] = second compound 0.3 µM, first compound 0.316 µM
[72] = second compound 0.3 µM, first compound 1 µM
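Further: spheroids exposed to agents for seven days before readout.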

IC50 (second compound 0.00316 µM): < 0.949 nM | IC50 (second compound 0.01 µM): < 0.949 nM | IC50 (second compound 0.0316 µM): < 0.949 nM | IC50 (second compound 0.1 µM): < 0.949 nM | IC50 (second compound 0.316 µM): < 0.949 nM | IC50 (second compound 1 µM): < 0.949 nM
SMILES: CC1(C)CCC(Nc2ncc(C(F)(F)F)c(-c3c[nH]c4c(P(C)(C)=O)c(C#N)ccc34)n2)CN1 (stereo not drawn) + C=CC(=O)N1CCN(c2nc(OCC3CCCN3C)nc3c(F)c(-c4nc(N)cc(C)c4C(F)(F)F)c(Cl)cc23)C(C)C1
viability, T/C [1]: 18.3% | viability, T/C [2]: 22.2% | viability, T/C [3]: 18.7% | viability, T/C [4]: 20.3% | viability, T/C [5]: 22.7% | viability, T/C [6]: 22.8% | viability, T/C [7]: 15.2% | viability, T/C [8]: 12.7% | viability, T/C [9]: 16.9% | viability, T/C [10]: 13.3% | viability, T/C [11]: 15.5% | viability, T/C [12]: 20.2% | viability, T/C [13]: 12.8% | viability, T/C [14]: 14% | viability, T/C [15]: 12.7% | viability, T/C [16]: 14.5% | viability, T/C [17]: 15.6% | viability, T/C [18]: 16.5% | viability, T/C [19]: 11.2% | viability, T/C [20]: 12.5% | viability, T/C [21]: 12.7% | viability, T/C [22]: 13.1% | viability, T/C [23]: 13.9% | viability, T/C [24]: 14.9% | viability, T/C [25]: 9.63% | viability, T/C [26]: 13.1% | viability, T/C [27]: 12.1% | viability, T/C [28]: 12.8% | viability, T/C [29]: 13.8% | viability, T/C [30]: 13.4% | viability, T/C [31]: 10.9% | viability, T/C [32]: 11.1% | viability, T/C [33]: 13.6% | viability, T/C [34]: 13.8% | viability, T/C [35]: 15.9% | viability, T/C [36]: 14.9%

IC50 (second compound 0.00316 µM): < 0.949 nM | IC50 (second compound 0.01 µM): < 0.949 nM | IC50 (second compound 0.0316 µM): < 0.949 nM | IC50 (second compound 0.1 µM): < 0.949 nM | IC50 (second compound 0.316 µM): < 0.949 nM | IC50 (second compound 1 µM): < 0.949 nM
SMILES: CCc1c2c(nc3ccc(O)cc13)-c1cc3c(c(=O)n1C2)COC(=O)[C@]3(O)CC + C=CC(=O)N1CCN(c2nc(OCC3CCCN3C)nc3c(F)c(-c4nc(N)cc(C)c4C(F)(F)F)c(Cl)cc23)C(C)C1
viability, T/C [1]: 19.9% | viability, T/C [2]: 18.5% | viability, T/C [3]: 14.5% | viability, T/C [4]: 13.7% | viability, T/C [5]: 8.97% | viability, T/C [6]: 4.41% | viability, T/C [7]: 11.6% | viability, T/C [8]: 10.7% | viability, T/C [9]: 11.3% | viability, T/C [10]: 9.32% | viability, T/C [11]: 8.86% | viability, T/C [12]: 4.64% | viability, T/C [13]: 10.1% | viability, T/C [14]: 9.35% | viability, T/C [15]: 8.29% | viability, T/C [16]: 8.73% | viability, T/C [17]: 8.33% | viability, T/C [18]: 4.32% | viability, T/C [19]: 8.25% | viability, T/C [20]: 9.14% | viability, T/C [21]: 10.9% | viability, T/C [22]: 7.98% | viability, T/C [23]: 6.67% | viability, T/C [24]: 3.89% | viability, T/C [25]: 10% | viability, T/C [26]: 9.61% | viability, T/C [27]: 9.94% | viability, T/C [28]: 10.7% | viability, T/C [29]: 7.22% | viability, T/C [30]: 4.36% | viability, T/C [31]: 9.61% | viability, T/C [32]: 11% | viability, T/C [33]: 8.27% | viability, T/C [34]: 8.66% | viability, T/C [35]: 6.75% | viability, T/C [36]: 2.88%

IC50 (second compound 0.000949 µM): < 3.16 nM | IC50 (second compound 0.003 µM): < 3.16 nM | IC50 (second compound 0.00949 µM): < 3.16 nM | IC50 (second compound 0.03 µM): < 3.16 nM | IC50 (second compound 0.0949 µM): < 3.16 nM | IC50 (second compound 0.3 µM): < 3.16 nM
SMILES: C=CC(=O)Nc1cc(Nc2nccc(-c3cn(C)c4ccccc34)n2)c(OC)cc1N(C)CCN(C)C + CCn1c(-c2cc(N3CCN(C)CC3)cnc2C(C)OC)c2c3cc(ccc31)-c1csc(n1)CC(NC(=O)C1CC1C)C(=O)N1CCCC(N1)C(=O)OCC(C)(C)C2
viability, T/C [37]: 42.7% | viability, T/C [38]: 48.3% | viability, T/C [39]: 35.9% | viability, T/C [40]: 38.2% | viability, T/C [41]: 21.3% | viability, T/C [42]: 12.4% | viability, T/C [43]: 24.9% | viability, T/C [44]: 21.3% | viability, T/C [45]: 14.2% | viability, T/C [46]: 17% | viability, T/C [47]: 8.65% | viability, T/C [48]: 7.93% | viability, T/C [49]: 17.6% | viability, T/C [50]: 9.97% | viability, T/C [51]: 7.46% | viability, T/C [52]: 8.25% | viability, T/C [53]: 4.55% | viability, T/C [54]: 4.52% | viability, T/C [55]: 7.56% | viability, T/C [56]: 5.27% | viability, T/C [57]: 5.75% | viability, T/C [58]: 3.23% | viability, T/C [59]: 3.09% | viability, T/C [60]: 3.11% | viability, T/C [61]: 3.51% | viability, T/C [62]: 3.84% | viability, T/C [63]: 2.21% | viability, T/C [64]: 2.65% | viability, T/C [65]: 3.94% | viability, T/C [66]: 3.24% | viability, T/C [67]: 2.73% | viability, T/C [68]: 2.35% | viability, T/C [69]: 2.65% | viability, T/C [70]: 2.51% | viability, T/C [71]: 2.55% | viability, T/C [72]: 3.25%

IC50 (second compound 0.000949 µM): < 3.16 nM | IC50 (second compound 0.003 µM): < 3.16 nM | IC50 (second compound 0.00949 µM): < 3.16 nM | IC50 (second compound 0.03 µM): < 3.16 nM | IC50 (second compound 0.0949 µM): < 3.16 nM | IC50 (second compound 0.3 µM): < 3.16 nM
SMILES: O=C(c1ccc(F)c(F)c1Nc1ccc(I)cc1F)N1CC(O)([C@@H]2CCCCN2)C1 + CCn1c(-c2cc(N3CCN(C)CC3)cnc2C(C)OC)c2c3cc(ccc31)-c1csc(n1)CC(NC(=O)C1CC1C)C(=O)N1CCCC(N1)C(=O)OCC(C)(C)C2
viability, T/C [37]: 44.4% | viability, T/C [38]: 36.8% | viability, T/C [39]: 16.1% | viability, T/C [40]: 14.3% | viability, T/C [41]: 7.06% | viability, T/C [42]: 3.12% | viability, T/C [43]: 20.1% | viability, T/C [44]: 12.8% | viability, T/C [45]: 8.83% | viability, T/C [46]: 4.83% | viability, T/C [47]: 3.13% | viability, T/C [48]: 1.88% | viability, T/C [49]: 12.8% | viability, T/C [50]: 20.7% | viability, T/C [51]: 3.97% | viability, T/C [52]: 3.06% | viability, T/C [53]: 1.18% | viability, T/C [54]: 1.4% | viability, T/C [55]: 3.31% | viability, T/C [56]: 1.65% | viability, T/C [57]: 2.04% | viability, T/C [58]: 1.29% | viability, T/C [59]: 1.25% | viability, T/C [60]: 0.85% | viability, T/C [61]: 2.17% | viability, T/C [62]: 1.59% | viability, T/C [63]: 1.36% | viability, T/C [64]: 0.82% | viability, T/C [65]: 0.8% | viability, T/C [66]: 0.95% | viability, T/C [67]: 2.23% | viability, T/C [68]: 1.56% | viability, T/C [69]: 1.42% | viability, T/C [70]: 0.74% | viability, T/C [71]: 0.89% | viability, T/C [72]: 0.77%
